# Assay results published in PubChem BioAssay (NCI).
#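 Compound exposure: 48 hours, 5 concentrations, 96-well plates. GI50 is the concentration that inhibits growth by half. TGI is the concentration that stops growth completely.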
# How the values were obtained:
# Assay in all cases: inhibition of tumour cell growth, NCI panel, 48 h
# 786-0 renal = system: 786-0 renal
# A498 renal = system: A498 renal
# A549 NSCLC = system: A549 NSCLC
# ACHN renal = system: ACHN renal
# BT-549 breast = system: BT-549 breast
# CAKI-1 renal = system: CAKI-1 renal
# COLO 205 colon = system: COLO 205 colon
# DU-145 prostate = system: DU-145 prostate
# EKVX NSCLC = system: EKVX NSCLC
# HCC-2998 colon = system: HCC-2998 colon
# HCT-116 colon = system: HCT-116 colon
# HCT-15 colon = system: HCT-15 colon
# HOP-62 NSCLC = system: HOP-62 NSCLC
# HOP-92 NSCLC = system: HOP-92 NSCLC
# HS 578T breast = system: HS 578T breast
# HT29 colon = system: HT29 colon
# K-562 leukemia = system: K-562 leukemia
# KM12 colon = system: KM12 colon
# LOX IMVI melanoma = system: LOX IMVI melanoma
# M14 melanoma = system: M14 melanoma
# MALME-3M melanoma = system: MALME-3M melanoma
# MCF7 breast = system: MCF7 breast
# MDA-MB-231 breast = system: MDA-MB-231 breast
# MDA-MB-435 = system: MDA-MB-435
# MOLT-4 leukemia = system: MOLT-4 leukemia
# NCI-H226 lung = system: NCI-H226 lung
# NCI-H23 lung = system: NCI-H23 lung
# NCI-H460 lung = system: NCI-H460 lung
# NCI-H522 lung = system: NCI-H522 lung
# NCI/ADR-RES ovarian = system: NCI/ADR-RES ovarian
# OVCAR-3 ovarian = system: OVCAR-3 ovarian
# OVCAR-4 ovarian = system: OVCAR-4 ovarian
# OVCAR-5 ovarian = system: OVCAR-5 ovarian
# OVCAR-8 ovarian = system: OVCAR-8 ovarian
# PC-3 prostate = system: PC-3 prostate
# RPMI-8226 leukemia = system: RPMI-8226 leukemia
# RXF 393 renal = system: RXF 393 renal
# SF-268 CNS = system: SF-268 CNS
# SF-295 CNS = system: SF-295 CNS
# SF-539 CNS = system: SF-539 CNS
# SK-MEL-2 melanoma = system: SK-MEL-2 melanoma
# SK-MEL-28 melanoma = system: SK-MEL-28 melanoma
# SK-MEL-5 melanoma = system: SK-MEL-5 melanoma
# SK-OV-3 ovarian = system: SK-OV-3 ovarian
# SN12C renal = system: SN12C renal
# SNB-19 CNS = system: SNB-19 CNS
# SR leukemia = system: SR leukemia
# SW-620 colon = system: SW-620 colon
# T-47D breast = system: T-47D breast
# TK-10 renal = system: TK-10 renal
# U251 CNS = system: U251 CNS
# UACC-257 melanoma = system: UACC-257 melanoma
# UACC-62 melanoma = system: UACC-62 melanoma
# UO-31 renal = system: UO-31 renal
# CCRF-CEM leukemia = system: CCRF-CEM leukemia
# HL-60(TB) leukemia = system: HL-60(TB) leukemia
# IGROV1 ovarian = system: IGROV1 ovarian
# SNB-75 CNS = system: SNB-75 CNS
smiles,measurement,setting,value
O=C1c2ccccc2-c2c1c1c(O)cccc1n2Cc1ccccc1,GI50,786-0 renal,15.6 µM
same,TGI,786-0 renal,31.9 µM
same,GI50,A498 renal,6.24 µM
same,TGI,A498 renal,25 µM
same,GI50,A549 NSCLC,16.8 µM
same,TGI,A549 NSCLC,> 100 µM
same,GI50,ACHN renal,6.9 µM
same,TGI,ACHN renal,23.8 µM
same,GI50,BT-549 breast,20.5 µM
same,TGI,BT-549 breast,56.1 µM
same,GI50,CAKI-1 renal,7.15 µM
same,TGI,CAKI-1 renal,20.8 µM
same,GI50,COLO 205 colon,47.4 µM
same,TGI,COLO 205 colon,> 100 µM
same,GI50,DU-145 prostate,11.9 µM
same,TGI,DU-145 prostate,64.7 µM
same,GI50,EKVX NSCLC,16.5 µM
same,TGI,EKVX NSCLC,69.2 µM
same,GI50,HCC-2998 colon,12.7 µM
same,TGI,HCC-2998 colon,39.1 µM
same,GI50,HCT-116 colon,11.8 µM
same,TGI,HCT-116 colon,> 100 µM
same,GI50,HCT-15 colon,27.5 µM
same,TGI,HCT-15 colon,> 100 µM
same,GI50,HOP-62 NSCLC,12.1 µM
same,TGI,HOP-62 NSCLC,29.8 µM
same,GI50,HOP-92 NSCLC,4.22 µM
same,TGI,HOP-92 NSCLC,19.8 µM
same,GI50,HS 578T breast,10.3 µM
same,TGI,HS 578T breast,32.8 µM
same,GI50,HT29 colon,38.2 µM
same,TGI,HT29 colon,> 100 µM
same,GI50,K-562 leukemia,22.8 µM
same,TGI,K-562 leukemia,> 100 µM
same,GI50,KM12 colon,15.8 µM
same,TGI,KM12 colon,84.9 µM
same,GI50,LOX IMVI melanoma,10.1 µM
same,TGI,LOX IMVI melanoma,> 100 µM
same,GI50,M14 melanoma,26.7 µM
same,TGI,M14 melanoma,> 100 µM
same,GI50,MALME-3M melanoma,2.76 µM
same,TGI,MALME-3M melanoma,8.65 µM
same,GI50,MCF7 breast,6.75 µM
same,TGI,MCF7 breast,30.8 µM
same,GI50,MDA-MB-231 breast,> 100 µM
same,TGI,MDA-MB-231 breast,> 100 µM
same,GI50,MDA-MB-435,19.1 µM
same,TGI,MDA-MB-435,> 100 µM
same,GI50,MOLT-4 leukemia,> 100 µM
same,TGI,MOLT-4 leukemia,> 100 µM
same,GI50,NCI-H226 lung,> 100 µM
same,TGI,NCI-H226 lung,> 100 µM
same,GI50,NCI-H23 lung,5.67 µM
same,TGI,NCI-H23 lung,29.7 µM
same,GI50,NCI-H460 lung,10.3 µM
same,TGI,NCI-H460 lung,45.6 µM
same,GI50,NCI-H522 lung,40 µM
same,TGI,NCI-H522 lung,> 100 µM
same,GI50,NCI/ADR-RES ovarian,6.5 µM
same,TGI,NCI/ADR-RES ovarian,33.6 µM
same,GI50,OVCAR-3 ovarian,4.17 µM
same,TGI,OVCAR-3 ovarian,17.3 µM
same,GI50,OVCAR-4 ovarian,7.14 µM
same,TGI,OVCAR-4 ovarian,43.9 µM
same,GI50,OVCAR-5 ovarian,16.4 µM
same,TGI,OVCAR-5 ovarian,51.2 µM
same,GI50,OVCAR-8 ovarian,28.6 µM
same,TGI,OVCAR-8 ovarian,> 100 µM
same,GI50,PC-3 prostate,12.3 µM
same,TGI,PC-3 prostate,32.6 µM
same,GI50,RPMI-8226 leukemia,30 µM
same,TGI,RPMI-8226 leukemia,> 100 µM
same,GI50,RXF 393 renal,11.5 µM
same,TGI,RXF 393 renal,44.8 µM
same,GI50,SF-268 CNS,6.58 µM
same,TGI,SF-268 CNS,37.9 µM
same,GI50,SF-295 CNS,6.12 µM
same,TGI,SF-295 CNS,18.4 µM
same,GI50,SF-539 CNS,14.2 µM
same,TGI,SF-539 CNS,35.3 µM
same,GI50,SK-MEL-2 melanoma,39.7 µM
same,TGI,SK-MEL-2 melanoma,> 100 µM
same,GI50,SK-MEL-28 melanoma,20.8 µM
same,TGI,SK-MEL-28 melanoma,62.4 µM
same,GI50,SK-MEL-5 melanoma,5.62 µM
same,TGI,SK-MEL-5 melanoma,24.7 µM
same,GI50,SK-OV-3 ovarian,14.5 µM
same,TGI,SK-OV-3 ovarian,41.7 µM
same,GI50,SN12C renal,14.1 µM
same,TGI,SN12C renal,> 100 µM
same,GI50,SNB-19 CNS,14.4 µM
same,TGI,SNB-19 CNS,82.5 µM
same,GI50,SR leukemia,30.5 µM
same,TGI,SR leukemia,> 100 µM
same,GI50,SW-620 colon,38 µM
same,TGI,SW-620 colon,> 100 µM
same,GI50,T-47D breast,7.8 µM
same,TGI,T-47D breast,90.2 µM
same,GI50,TK-10 renal,8.74 µM
same,TGI,TK-10 renal,22.5 µM
same,GI50,U251 CNS,15.2 µM
same,TGI,U251 CNS,67.1 µM
same,GI50,UACC-257 melanoma,17.7 µM
same,TGI,UACC-257 melanoma,68.5 µM
same,GI50,UACC-62 melanoma,7.35 µM
same,TGI,UACC-62 melanoma,27.2 µM
same,GI50,UO-31 renal,21.8 µM
same,TGI,UO-31 renal,> 100 µM
Cc1cccc(Oc2ccc(Nc3ncnc4ccc(NC(=O)CN(C)C)cc34)cc2Cl)c1,GI50,786-0 renal,1.59 µM
same,TGI,786-0 renal,3.16 µM
same,GI50,A498 renal,1.8 µM
same,TGI,A498 renal,9.18 µM
same,GI50,A549 NSCLC,1.91 µM
same,TGI,A549 NSCLC,10.1 µM
same,GI50,ACHN renal,0.804 µM
same,TGI,ACHN renal,4 µM
same,GI50,BT-549 breast,2.4 µM
same,TGI,BT-549 breast,8.45 µM
same,GI50,CAKI-1 renal,1.1 µM
same,TGI,CAKI-1 renal,2.97 µM
same,GI50,CCRF-CEM leukemia,2.54 µM
same,TGI,CCRF-CEM leukemia,8.14 µM
same,GI50,COLO 205 colon,1.71 µM
same,TGI,COLO 205 colon,3.48 µM
same,GI50,DU-145 prostate,2.14 µM
same,TGI,DU-145 prostate,10.8 µM
same,GI50,EKVX NSCLC,0.512 µM
same,TGI,EKVX NSCLC,4.19 µM
same,GI50,HCC-2998 colon,1.6 µM
same,TGI,HCC-2998 colon,3.19 µM
same,GI50,HCT-116 colon,1.61 µM
same,TGI,HCT-116 colon,3.09 µM
same,GI50,HCT-15 colon,1.6 µM
same,TGI,HCT-15 colon,3.13 µM
same,GI50,HL-60(TB) leukemia,2.07 µM
same,TGI,HL-60(TB) leukemia,4.72 µM
same,GI50,HOP-62 NSCLC,1.89 µM
same,TGI,HOP-62 NSCLC,4.16 µM
same,GI50,HOP-92 NSCLC,1.4 µM
same,TGI,HOP-92 NSCLC,3.99 µM
same,GI50,HS 578T breast,1.81 µM
same,TGI,HS 578T breast,4.33 µM
same,GI50,HT29 colon,1.76 µM
same,TGI,HT29 colon,3.77 µM
same,GI50,IGROV1 ovarian,0.376 µM
same,TGI,IGROV1 ovarian,2.41 µM
same,GI50,K-562 leukemia,1.91 µM
same,TGI,K-562 leukemia,4.63 µM
same,GI50,KM12 colon,2 µM
same,TGI,KM12 colon,4.09 µM
same,GI50,LOX IMVI melanoma,1.53 µM
same,TGI,LOX IMVI melanoma,2.86 µM
same,GI50,M14 melanoma,1.71 µM
same,TGI,M14 melanoma,3.5 µM
same,GI50,MALME-3M melanoma,1.72 µM
same,TGI,MALME-3M melanoma,3.35 µM
same,GI50,MCF7 breast,1.69 µM
same,TGI,MCF7 breast,3.87 µM
same,GI50,MDA-MB-231 breast,1.72 µM
same,TGI,MDA-MB-231 breast,3.57 µM
same,GI50,MDA-MB-435,1.67 µM
same,TGI,MDA-MB-435,3.14 µM
same,GI50,MOLT-4 leukemia,2.37 µM
same,TGI,MOLT-4 leukemia,6.82 µM
same,GI50,NCI-H226 lung,11.9 µM
same,TGI,NCI-H226 lung,28.3 µM
same,GI50,NCI-H23 lung,2.95 µM
same,TGI,NCI-H23 lung,11.6 µM
same,GI50,NCI-H460 lung,1.81 µM
same,TGI,NCI-H460 lung,3.35 µM
same,GI50,NCI-H522 lung,0.244 µM
same,TGI,NCI-H522 lung,1.98 µM
same,GI50,NCI/ADR-RES ovarian,2.83 µM
same,TGI,NCI/ADR-RES ovarian,14.2 µM
same,GI50,OVCAR-3 ovarian,1.16 µM
same,TGI,OVCAR-3 ovarian,3 µM
same,GI50,OVCAR-4 ovarian,1.7 µM
same,TGI,OVCAR-4 ovarian,5.59 µM
same,GI50,OVCAR-5 ovarian,2.98 µM
same,TGI,OVCAR-5 ovarian,12.9 µM
same,GI50,OVCAR-8 ovarian,2.72 µM
same,TGI,OVCAR-8 ovarian,11.3 µM
same,GI50,PC-3 prostate,2.02 µM
same,TGI,PC-3 prostate,6.32 µM
same,GI50,RXF 393 renal,1.61 µM
same,TGI,RXF 393 renal,3.19 µM
same,GI50,SF-268 CNS,1.47 µM
same,TGI,SF-268 CNS,3.1 µM
same,GI50,SF-295 CNS,1.66 µM
same,TGI,SF-295 CNS,3.2 µM
same,GI50,SF-539 CNS,1.82 µM
same,TGI,SF-539 CNS,3.42 µM
same,GI50,SK-MEL-2 melanoma,1.84 µM
same,TGI,SK-MEL-2 melanoma,3.63 µM
same,GI50,SK-MEL-28 melanoma,1.85 µM
same,TGI,SK-MEL-28 melanoma,3.48 µM
same,GI50,SK-MEL-5 melanoma,1.64 µM
same,TGI,SK-MEL-5 melanoma,3.03 µM
same,GI50,SK-OV-3 ovarian,0.828 µM
same,TGI,SK-OV-3 ovarian,7.24 µM
same,GI50,SN12C renal,1.34 µM
same,TGI,SN12C renal,3.13 µM
same,GI50,SNB-19 CNS,2.11 µM
same,TGI,SNB-19 CNS,6.35 µM
same,GI50,SNB-75 CNS,2.01 µM
same,TGI,SNB-75 CNS,5.05 µM
same,GI50,SW-620 colon,1.64 µM
same,TGI,SW-620 colon,3.05 µM
same,GI50,T-47D breast,1.08 µM
same,TGI,T-47D breast,4.59 µM
same,GI50,TK-10 renal,1.1 µM
same,TGI,TK-10 renal,3.57 µM
same,GI50,U251 CNS,1.68 µM
same,TGI,U251 CNS,3.29 µM
same,GI50,UACC-257 melanoma,1.71 µM
same,TGI,UACC-257 melanoma,3.3 µM
same,GI50,UACC-62 melanoma,1.71 µM
same,TGI,UACC-62 melanoma,3.38 µM
same,GI50,UO-31 renal,1.12 µM
same,TGI,UO-31 renal,2.47 µM
